Laboratory results as given in patent US20100267561A1, “HERBICIDAL PYRIDAZINONE DERIVATIVES” (priority 2007, published 2010).

Experiments:
Assay in all cases: Test E pre-/postemergence plant response
Assay type in all cases: in vivo
[1] = test system: barnyardgrass (Echinochloa crus-galli); details: scale 0 to 100
Summary of the method: (§1)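 Plant response was judged by eye relative to controls, 0 meaning no effect and 100 complete control, after 14 to 21 days under greenhouse conditions. Compound was formulated in a non-phytotoxic solvent mixture with surfactant.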

[2] = test system: guineagrass (Panicum maximum); details: scale 0 to 100
Summary of the method: as §1

[3] = test system: common chickweed (Stellaria media); details: Postemergence, scale 0 to 100
Summary of the method: as §1

[4] = test system: bermudagrass (Cynodon dactylon); details: scale 0 to 100
Summary of the method: as §1

[5] = test system: naked crabgrass (Digitaria nuda); details: scale 0 to 100
Summary of the method: as §1

[6] = test system: itchgrass (Rottboellia cochinchinensis); details: scale 0 to 100
Summary of the method: as §1

[7] = test system: goosegrass (Eleusine indica); details: scale 0 to 100
Summary of the method: as §1

[8] = test system: black mustard (Brassica nigra); details: scale 0 to 100
Summary of the method: as §1

[9] = test system: annual bluegrass (Poa annua); details: scale 0 to 100
Summary of the method: as §1

[10] = test system: pitted morningglory (Ipomoea lacunosa); details: scale 0 to 100
Summary of the method: as §1

[11] = test system: Italian ryegrass (Lolium multiflorum); details: scale 0 to 100
Summary of the method: as §1

**Q.** For `CCc1cc(-c2ccc(Cl)cc2)nn1-c1c(OC(=O)C(C)(C)C)cnn(C)c1=O` [Compound 40], which “Plant response rating, Barnyardgrass” value ([1]; 8 g ai/ha, Preemergence) is on record?
**A.** 75

**Q.** And the “Plant response rating, Barnyardgrass” value ([1]; 16 g ai/ha, Preemergence)?
**A.** 95

**Q.** And the “Plant response rating, Barnyardgrass” value ([1]; 31 g ai/ha, Preemergence)?
**A.** 100

**Q.** And the “Plant response rating, Barnyardgrass” value ([1]; 62 g ai/ha, Preemergence)?
**A.** 100

**Q.** And the “Plant response rating, Barnyardgrass” value ([1]; Postemergence, 8 g ai/ha)?
**A.** 100

**Q.** And the “Plant response rating, Barnyardgrass” value ([1]; Postemergence, 16 g ai/ha)?
**A.** 100

**Q.** And the “Plant response rating, Barnyardgrass” value ([1]; Postemergence, 31 g ai/ha)?
**A.** 100

**Q.** What about the “Plant response rating, Barnyardgrass” value ([1]; Postemergence, 62 g ai/ha) of the same molecule?
**A.** 100

**Q.** What about the “Plant response rating, Guineagrass” value ([2]; 16 g ai/ha, Preemergence) of the same molecule?
**A.** 100

**Q.** And the “Plant response rating, Guineagrass” value ([2]; 31 g ai/ha, Preemergence)?
**A.** 100

**Q.** And the “Plant response rating, Guineagrass” value ([2]; 62 g ai/ha, Preemergence)?
**A.** 100

**Q.** What about the “Plant response rating, Guineagrass” value ([2]; Postemergence, 8 g ai/ha) of the same molecule?
**A.** 80

**Q.** And the “Plant response rating, Guineagrass” value ([2]; Postemergence, 16 g ai/ha)?
**A.** 90

**Q.** And the “Plant response rating, Guineagrass” value ([2]; Postemergence, 31 g ai/ha)?
**A.** 95

**Q.** What about the “Plant response rating, Guineagrass” value ([2]; Postemergence, 62 g ai/ha) of the same molecule?
**A.** 100

**Q.** And the “Plant response rating, Chickweed” value ([3]; 8 g ai/ha)?
**A.** 0

**Q.** What about the “Plant response rating, Chickweed” value ([3]; 16 g ai/ha) of the same molecule?
**A.** 0

**Q.** And the “Plant response rating, Chickweed” value ([3]; 31 g ai/ha)?
**A.** 0

**Q.** And the “Plant response rating, Bermudagrass” value ([4]; 8 g ai/ha, Preemergence)?
**A.** 40

**Q.** What about the “Plant response rating, Bermudagrass” value ([4]; 16 g ai/ha, Preemergence) of the same molecule?
**A.** 80

**Q.** And the “Plant response rating, Bermudagrass” value ([4]; 31 g ai/ha, Preemergence)?
**A.** 98

**Q.** What about the “Plant response rating, Bermudagrass” value ([4]; 62 g ai/ha, Preemergence) of the same molecule?
**A.** 100

**Q.** And the “Plant response rating, Bermudagrass” value ([4]; Postemergence, 8 g ai/ha)?
**A.** 30

**Q.** And the “Plant response rating, Bermudagrass” value ([4]; Postemergence, 16 g ai/ha)?
**A.** 50

**Q.** What about the “Plant response rating, Bermudagrass” value ([4]; Postemergence, 31 g ai/ha) of the same molecule?
**A.** 60

**Q.** And the “Plant response rating, Bermudagrass” value ([4]; Postemergence, 62 g ai/ha)?
**A.** 70

**Q.** And the “Plant response rating, Crabgrass, Naked” value ([5]; 8 g ai/ha, Preemergence)?
**A.** 90

**Q.** What about the “Plant response rating, Crabgrass, Naked” value ([5]; 16 g ai/ha, Preemergence) of the same molecule?
**A.** 90

**Q.** What about the “Plant response rating, Crabgrass, Naked” value ([5]; 31 g ai/ha, Preemergence) of the same molecule?
**A.** 100

**Q.** What about the “Plant response rating, Crabgrass, Naked” value ([5]; 62 g ai/ha, Preemergence) of the same molecule?
**A.** 100

**Q.** And the “Plant response rating, Crabgrass, Naked” value ([5]; Postemergence, 8 g ai/ha)?
**A.** 50

**Q.** And the “Plant response rating, Crabgrass, Naked” value ([5]; Postemergence, 16 g ai/ha)?
**A.** 75

**Q.** And the “Plant response rating, Crabgrass, Naked” value ([5]; Postemergence, 31 g ai/ha)?
**A.** 95

**Q.** And the “Plant response rating, Crabgrass, Naked” value ([5]; Postemergence, 62 g ai/ha)?
**A.** 100

**Q.** And the “Plant response rating, Itchgrass” value ([6]; 16 g ai/ha, Preemergence)?
**A.** 60

**Q.** What about the “Plant response rating, Itchgrass” value ([6]; 31 g ai/ha, Preemergence) of the same molecule?
**A.** 75

**Q.** And the “Plant response rating, Itchgrass” value ([6]; 62 g ai/ha, Preemergence)?
**A.** 85

**Q.** What about the “Plant response rating, Itchgrass” value ([6]; Postemergence, 8 g ai/ha) of the same molecule?
**A.** 40

**Q.** What about the “Plant response rating, Itchgrass” value ([6]; Postemergence, 16 g ai/ha) of the same molecule?
**A.** 40

**Q.** And the “Plant response rating, Itchgrass” value ([6]; Postemergence, 31 g ai/ha)?
**A.** 80

**Q.** What about the “Plant response rating, Itchgrass” value ([6]; Postemergence, 62 g ai/ha) of the same molecule?
**A.** 80

**Q.** And the “Plant response rating, Goosegrass” value ([7]; 8 g ai/ha, Preemergence)?
**A.** 75

**Q.** And the “Plant response rating, Goosegrass” value ([7]; 16 g ai/ha, Preemergence)?
**A.** 98

**Q.** What about the “Plant response rating, Goosegrass” value ([7]; 31 g ai/ha, Preemergence) of the same molecule?
**A.** 100

**Q.** What about the “Plant response rating, Goosegrass” value ([7]; 62 g ai/ha, Preemergence) of the same molecule?
**A.** 100

**Q.** And the “Plant response rating, Goosegrass” value ([7]; Postemergence, 8 g ai/ha)?
**A.** 65

**Q.** And the “Plant response rating, Goosegrass” value ([7]; Postemergence, 16 g ai/ha)?
**A.** 65

**Q.** What about the “Plant response rating, Goosegrass” value ([7]; Postemergence, 31 g ai/ha) of the same molecule?
**A.** 80

**Q.** And the “Plant response rating, Goosegrass” value ([7]; Postemergence, 62 g ai/ha)?
**A.** 95

**Q.** What about the “Plant response rating, Mustard, Black” value ([8]; 8 g ai/ha, Preemergence) of the same molecule?
**A.** 0

**Q.** And the “Plant response rating, Mustard, Black” value ([8]; 16 g ai/ha, Preemergence)?
**A.** 0

**Q.** And the “Plant response rating, Mustard, Black” value ([8]; 31 g ai/ha, Preemergence)?
**A.** 0

**Q.** What about the “Plant response rating, Mustard, Black” value ([8]; 62 g ai/ha, Preemergence) of the same molecule?
**A.** 0

**Q.** What about the “Plant response rating, Mustard, Black” value ([8]; Postemergence, 8 g ai/ha) of the same molecule?
**A.** 0

**Q.** And the “Plant response rating, Mustard, Black” value ([8]; Postemergence, 16 g ai/ha)?
**A.** 0

**Q.** What about the “Plant response rating, Mustard, Black” value ([8]; Postemergence, 31 g ai/ha) of the same molecule?
**A.** 0

**Q.** What about the “Plant response rating, Mustard, Black” value ([8]; Postemergence, 62 g ai/ha) of the same molecule?
**A.** 0

**Q.** What about the “Plant response rating, Bluegrass” value ([9]; 8 g ai/ha, Preemergence) of the same molecule?
**A.** 60

**Q.** And the “Plant response rating, Bluegrass” value ([9]; 16 g ai/ha, Preemergence)?
**A.** 90

**Q.** And the “Plant response rating, Bluegrass” value ([9]; 62 g ai/ha, Preemergence)?
**A.** 95

**Q.** What about the “Plant response rating, Bluegrass” value ([9]; Postemergence, 8 g ai/ha) of the same molecule?
**A.** 0

**Q.** What about the “Plant response rating, Bluegrass” value ([9]; Postemergence, 16 g ai/ha) of the same molecule?
**A.** 0

**Q.** And the “Plant response rating, Bluegrass” value ([9]; Postemergence, 31 g ai/ha)?
**A.** 15

**Q.** And the “Plant response rating, Bluegrass” value ([9]; Postemergence, 62 g ai/ha)?
**A.** 15

**Q.** What about the “Plant response rating, Morningglory” value ([10]; 16 g ai/ha, Preemergence) of the same molecule?
**A.** 0

**Q.** What about the “Plant response rating, Morningglory” value ([10]; 31 g ai/ha, Preemergence) of the same molecule?
**A.** 0

**Q.** What about the “Plant response rating, Morningglory” value ([10]; 62 g ai/ha, Preemergence) of the same molecule?
**A.** 0

**Q.** And the “Plant response rating, Morningglory” value ([10]; Postemergence, 8 g ai/ha)?
**A.** 0

**Q.** What about the “Plant response rating, Morningglory” value ([10]; Postemergence, 16 g ai/ha) of the same molecule?
**A.** 0

**Q.** And the “Plant response rating, Morningglory” value ([10]; Postemergence, 31 g ai/ha)?
**A.** 0

**Q.** What about the “Plant response rating, Morningglory” value ([10]; Postemergence, 62 g ai/ha) of the same molecule?
**A.** 0

**Q.** What about the “Plant response rating, Ryegrass, Italian” value ([11]; 16 g ai/ha, Preemergence) of the same molecule?
**A.** 98

**Q.** What about the “Plant response rating, Ryegrass, Italian” value ([11]; 31 g ai/ha, Preemergence) of the same molecule?
**A.** 100

**Q.** And the “Plant response rating, Ryegrass, Italian” value ([11]; 62 g ai/ha, Preemergence)?
**A.** 100

**Q.** What about the “Plant response rating, Ryegrass, Italian” value ([11]; Postemergence, 8 g ai/ha) of the same molecule?
**A.** 90

**Q.** And the “Plant response rating, Ryegrass, Italian” value ([11]; Postemergence, 16 g ai/ha)?
**A.** 90

**Q.** What about the “Plant response rating, Ryegrass, Italian” value ([11]; Postemergence, 31 g ai/ha) of the same molecule?
**A.** 100

**Q.** What about the “Plant response rating, Ryegrass, Italian” value ([11]; Postemergence, 62 g ai/ha) of the same molecule?
**A.** 100
